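Method: 48-hour compound exposure of cells in 96-well plates, five concentrations, linear interpolation of endpoints. TGI: total growth inhibition.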
Tests used:
Assay in all cases: inhibition of tumour cell growth, NCI panel, 48 h
[1] = system: 786-0 renal
[2] = system: A498 renal
[3] = system: A549 NSCLC
[4] = system: ACHN renal
[5] = system: CCRF-CEM leukemia
[6] = system: COLO 205 colon
[7] = system: DLD-1 colon
[8] = system: DMS 114 small cell lung
[9] = system: DMS 273 small cell lung
[10] = system: EKVX NSCLC
[11] = system: HL-60(TB) leukemia
[12] = system: HOP-18 NSCLC
[13] = system: HT29 colon
[14] = system: IGROV1 ovarian
[15] = system: K-562 leukemia
[16] = system: KM12 colon
[17] = system: LOX IMVI melanoma
[18] = system: LXFL 529 NSCLC
[19] = system: M14 melanoma
[20] = system: M19-MEL melanoma
[21] = system: MOLT-4 leukemia
[22] = system: NCI-H226 lung
[23] = system: NCI-H23 lung
[24] = system: NCI-H460 lung
[25] = system: OVCAR-3 ovarian
[26] = system: OVCAR-4 ovarian
[27] = system: OVCAR-5 ovarian
[28] = system: OVCAR-8 ovarian
[29] = system: RPMI-8226 leukemia
[30] = system: RXF 393 renal
[31] = system: SF-268 CNS
[32] = system: SF-295 CNS
[33] = system: SF-539 CNS
[34] = system: SK-MEL-28 melanoma
[35] = system: SK-MEL-5 melanoma
[36] = system: SK-OV-3 ovarian
[37] = system: SNB-19 CNS
[38] = system: SNB-75 CNS
[39] = system: SNB-78 CNS
[40] = system: SR leukemia
[41] = system: SW-620 colon
[42] = system: TK-10 renal
[43] = system: U251 CNS
[44] = system: UACC-62 melanoma
[45] = system: UO-31 renal

`O=C1C=C(c2[nH]c3ccccc3c2C2=CC(=O)c3ccccc3C2=O)C(=O)c2ccccc21` gave a TGI [1] of over 100 µM, a TGI [2] of over 100 µM and a TGI [3] of over 100 µM. It also gave a TGI [4] of over 100 µM, a TGI [5] of 43.9 µM and a TGI [6] of over 100 µM. The TGI [7] was over 100 µM, the TGI [8] was 36.6 µM and the TGI [9] was over 100 µM. For the same compound, the TGI [10] was over 100 µM, the TGI [11] was 44.4 µM and the TGI [12] was over 100 µM. The TGI [13] was over 100 µM, the TGI [14] was 95.6 µM and the TGI [15] was 60.1 µM. It also gave a TGI [16] of over 100 µM, a TGI [17] of 59 µM and a TGI [18] of over 100 µM. For the same compound, the TGI [19] was over 100 µM, the TGI [20] was 35.4 µM and the TGI [21] was 35.7 µM. It also gave a TGI [22] of over 100 µM, a TGI [23] of over 100 µM and a TGI [24] of over 100 µM. It also gave a TGI [25] of 88.3 µM, a TGI [26] of over 100 µM and a TGI [27] of over 100 µM. It also gave a TGI [28] of over 100 µM, a TGI [29] of over 100 µM and a TGI [30] of over 100 µM. It also gave a TGI [31] of over 100 µM, a TGI [32] of over 100 µM and a TGI [33] of over 100 µM. It also gave a TGI [34] of over 100 µM, a TGI [35] of over 100 µM and a TGI [36] of over 100 µM. The TGI [37] was over 100 µM, the TGI [38] was 57.6 µM and the TGI [39] was over 100 µM. The TGI [40] was 57.1 µM, the TGI [41] was over 100 µM and the TGI [42] was over 100 µM. The TGI [43] was over 100 µM, the TGI [44] was 71.3 µM and the TGI [45] was over 100 µM.

Reference: PubChem BioAssay (NCI)
